Test results published in ChEMBL document CHEMBL1811803, “Preparation of allosamidin and demethylallosamidin photoaffinity probes and analysis of allosamidin-binding proteins in asthmatic mice” (Bioorg Med Chem, 2011).
Activity calls are given as the source filed them. The calls are words filed in the database; no cut-off is given here.

Columns and labels:
[1] = Inhibition of Trichoderma chitinase T1 using [4MU-(GlcNAc)3] as substrate
[2] = target: Chitinase-like protein 3 (Mus musculus) (UniProt O35744); test: Binding affinity to Ym1 in IL-13-induced asthmatic A/J mouse BAL fluid after 1 hrs by photoaffinity labeling study
[3] = target: Chitinase-like protein 3 (Mus musculus) (UniProt O35744); test: Binding affinity to recombinant His-tagged mouse Ym1 expressed in Escherichia coli after 1 hrs by photoaffinity labeling study
[4] = test system: Alpha-1-antiproteinase (Mus musculus); test: Binding affinity to alpha-1 antitrypsin in IL-13-induced asthmatic A/J mouse BAL fluid after 1 hrs by photoaffinity labeling study
[5] = Stability of the compound in 0.05 M HCl for 30 mins at room temperature; format: physicochemical; conditions: buffer, 0.5 h
[6] = Stability of the compound in 0.05 M NaOH for 30 mins at room temperature; format: physicochemical; conditions: 0.5 h

Chain of Chitinase-like protein 3 (Mus musculus) (O35744 whole entry): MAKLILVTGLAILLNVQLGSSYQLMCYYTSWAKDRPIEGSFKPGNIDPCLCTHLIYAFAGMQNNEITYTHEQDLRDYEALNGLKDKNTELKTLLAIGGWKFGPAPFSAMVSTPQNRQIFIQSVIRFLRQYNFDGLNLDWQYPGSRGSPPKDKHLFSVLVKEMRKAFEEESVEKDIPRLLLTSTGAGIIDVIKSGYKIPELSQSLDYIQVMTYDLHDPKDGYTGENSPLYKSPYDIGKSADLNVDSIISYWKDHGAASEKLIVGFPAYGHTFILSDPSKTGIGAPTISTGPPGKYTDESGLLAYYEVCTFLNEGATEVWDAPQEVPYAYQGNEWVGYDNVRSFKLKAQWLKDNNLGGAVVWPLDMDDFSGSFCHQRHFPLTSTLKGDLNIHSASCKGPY

| Structure (SMILES) | IC50 [1] [µM] | further results |
| --- | --- | --- |
| CNC1=N[C@@H]2[C@@H](O)[C@H](O[C@@H]3O[C@H](CO)[C@@H](O[C@@H]4O[C@H](CO)[C@@H](O)[C@@H](O)[C@H]4NC(C)=O)[C@@H](O)[C@H]3NC(=O)CCSSCCNC(=O)CCCCC3SCC4NC(=O)NC43)[C@@H](CO)[C@@H]2O1 (some centres not stated) | 49.7 |  |
| CC(=O)N[C@H]1[C@H](O[C@H]2[C@H](O)[C@H]3N=C(N(C)C)O[C@H]3[C@@H]2CO)O[C@H](CO)[C@@H](O[C@@H]2O[C@H](CO)[C@@H](O)[C@@H](O)[C@H]2N)[C@H]1O | 34.3 |  |
| CC(=O)N[C@H]1[C@H](O[C@H]2[C@@H](O)[C@@H](NC(=O)CCSSCCNC(=O)C(CCCCNC(=O)CCCCC3SCC4NC(=O)NC43)NC(=O)c3ccc(N=[NH+][NH-])cc3)[C@H](O[C@H]3[C@H](O)[C@H]4N=C(N(C)C)O[C@H]4[C@@H]3CO)O[C@@H]2CO)O[C@H](CO)[C@@H](O)[C@H]1O (some centres not stated) | 125 |  |
| CC(=O)N[C@H]1[C@H](O[C@H]2[C@@H](O)[C@@H](NC(=O)CCSSCCNC(=O)CCCCC3SCC4NC(=O)NC43)[C@H](O[C@H]3[C@H](O)[C@H]4N=C(N(C)C)O[C@H]4[C@@H]3CO)O[C@@H]2CO)O[C@H](CO)[C@@H](O)[C@H]1O (some centres not stated) | 50.3 |  |
| CNC1=N[C@@H]2[C@@H](O)[C@H](O[C@@H]3O[C@H](CO)[C@@H](O[C@@H]4O[C@H](CO)[C@@H](O)[C@@H](O)[C@H]4N)[C@@H](O)[C@H]3NC(C)=O)[C@@H](CO)[C@@H]2O1 | 82.9 |  |
| CC(=O)N[C@H]1[C@H](O[C@H]2[C@@H](O)[C@@H](N)[C@H](O[C@H]3[C@H](O)[C@H]4N=C(N(C)C)O[C@H]4[C@@H]3CO)O[C@@H]2CO)O[C@H](CO)[C@@H](O)[C@H]1O | 69.3 |  |
| CNC1=N[C@@H]2[C@@H](O)[C@H](O[C@@H]3O[C@H](CO)[C@@H](O[C@@H]4O[C@H](CO)[C@@H](O)[C@@H](O)[C@H]4NC(C)=O)[C@@H](O)[C@H]3NC(=O)CCSSCCNC(=O)C(CCCCNC(=O)CCCCC3SCC4NC(=O)NC43)NC(=O)c3ccc(N=[NH+][NH-])cc3)[C@@H](CO)[C@@H]2O1 (some centres not stated) | 155 |  |
| CNC1=N[C@@H]2[C@@H](O)[C@H](O[C@@H]3O[C@H](CO)[C@@H](O[C@@H]4O[C@H](CO)[C@@H](O)[C@@H](O)[C@H]4NC(C)=O)[C@@H](O)[C@H]3N)[C@@H](CO)[C@@H]2O1 | 308 |  |

The next compounds have a lower IC50 [1] than those just listed; values first:

| IC50 [1] [µM] | Structure (SMILES) | further results |
| --- | --- | --- |
| 10.7 | CC(=O)N[C@H]1[C@H](O[C@H]2[C@H](O)[C@H]3N=C(N(C)C)O[C@H]3[C@@H]2CO)O[C@H](CO)[C@@H](O[C@@H]2O[C@H](CO)[C@@H](O)[C@@H](O)[C@H]2NC(=O)CCSSCCNC(=O)C(CCCCNC(=O)CCCCC2SCC3NC(=O)NC32)NC(=O)c2ccc(N=[NH+][NH-])cc2)[C@H]1O (some centres not stated) | Activity [2]: Active; Activity [3]: Active; Activity [4]: Active |
| 10.3 | CNC1=N[C@@H]2[C@@H](O)[C@H](O[C@@H]3O[C@H](CO)[C@@H](O[C@@H]4O[C@H](CO)[C@@H](O)[C@@H](O)[C@H]4NC(C)=O)[C@@H](O)[C@H]3NC(C)=O)[C@@H](CO)[C@@H]2O1 [DEMETHYLALLOSAMIDIN] |  |
| 7.9 | CNC1=N[C@@H]2[C@@H](O)[C@H](O[C@@H]3O[C@H](CO)[C@@H](O[C@@H]4O[C@H](CO)[C@@H](O)[C@@H](O)[C@H]4NC(=O)CCSSCCNC(=O)CCCCC4SCC5NC(=O)NC54)[C@@H](O)[C@H]3NC(C)=O)[C@@H](CO)[C@@H]2O1 (some centres not stated) |  |
| 7.7 | CNC1=N[C@@H]2[C@@H](O)[C@H](O[C@@H]3O[C@H](CO)[C@@H](O[C@@H]4O[C@H](CO)[C@@H](O)[C@@H](O)[C@H]4NC(=O)CCSSCCNC(=O)C(CCCCNC(=O)CCCCC4SCC5NC(=O)NC54)NC(=O)c4ccc(N=[NH+][NH-])cc4)[C@@H](O)[C@H]3NC(C)=O)[C@@H](CO)[C@@H]2O1 (some centres not stated) | Activity [2]: Active; Activity [3]: Active; Activity [4]: Active |
| 5.4 | CC(=O)N[C@H]1[C@H](O[C@H]2[C@@H](O)[C@@H](NC(C)=O)[C@H](O[C@H]3[C@H](O)[C@H]4N=C(N(C)C)O[C@H]4[C@@H]3CO)O[C@@H]2CO)O[C@H](CO)[C@@H](O)[C@H]1O [ALLOSAMIDIN] |  |
| 3.6 | CC(=O)N[C@H]1[C@H](O[C@H]2[C@H](O)[C@H]3N=C(N(C)C)O[C@H]3[C@@H]2CO)O[C@H](CO)[C@@H](O[C@@H]2O[C@H](CO)[C@@H](O)[C@@H](O)[C@H]2NC(=O)CCSSCCNC(=O)CCCCC2SCC3NC(=O)NC32)[C@H]1O (some centres not stated) | Stability [5]: Stable; Stability [6]: Stable |
